The values that follow come from patent US20050282751A1, “Therapeutic agent for renal anemia” (Ajinomoto Co., Inc., priority 2004, published 2005).

The subject of series [1] is patients with renal anemia. Put plainly: Clinical test: hemoglobin in patients with renal anemia, oral Argi U granules. The format is in vivo, human. As for the experimental part:
The administration period was at the longest 18 weeks. The amount of each of hemoglobin, BUN (blood urea nitrogen), Cre (creatinine), Fe and erythropoietin in blood was determined by methods described below.
Hemoglobin was determined with an automatic blood cell analysis device.
The hemoglobin concentration of each case determined before and after the administration of the amino acid preparation is shown in Table 2.
For typical three patients, a change in hemoglobin concentration was given as ΔHb value (amount of change of hemoglobin) calculated by deducting the hemoglobin concentration before the administration of the amino acid preparation from the hemoglobin concentration after the administration thereof in FIG. 1.

Series [2] relates to patients with renal anemia. Kind of series: Clinical test: Cre (creatinine), enzymatic method. The format is in vivo, human. To be noted: effective cases 1, 2, 4 and 6. The text has this: (§1) 1.3 g of an amino acid preparation (trade name: Argi U granules, a product of Ajinomoto Pharma Co. Ltd.) (1.0 g of arginine) was orally administered in two portions everyday to each of 8 patients having an illness diagnosed as renal anemia (cases of chronic renal failure in conservative stage accompanying renal anemia, whose age, hemocytometric results and results of general biochemical tests are shown in Table 1). The administration period was at the longest 18 weeks. The amount of each of hemoglobin, BUN (blood urea nitrogen), Cre (creatinine), Fe and erythropoietin in blood was determined by methods described below.
Cre was determined by an enzymatic method (sarcosine oxidase[…]POD method).

The test system of series [3] is patients with renal anemia. Kind of series: Clinical test: side effects. In kind it is in vivo, human. As for the experimental part:
1.3 g of an amino acid preparation (trade name: Argi U granules, a product of Ajinomoto Pharma Co. Ltd.) (1.0 g of […] in conservative stage accompanying renal anemia, whose age, hemocytometric results and results of general biochemical tests are shown in Table 1). The administration period was at the longest 18 weeks. The amount of each of hemoglobin, BUN (blood urea nitrogen), Cre (creatinine), Fe and erythropoietin in blood was determined by methods described below.

Series [4] has as its system patients with renal anemia. Kind of series: Clinical test: erythropoietin in blood, ELISA. In kind it is in vivo, human.
From the text: as §1
Erythropoietin was determined by ELISA method.

For series [5], the system named is patients with renal anemia. To be noted: conventional treatment with rHuEPO preparation; cited from earlier work.

Take `N=C(N)NCCC[C@H](N)C(=O)O` [L-arginine]: in series [1] (2 cases in the 7 effective cases), the “anemia after discontinuance of administration” value was “anemia became worse”. For the same compound, the “Hb after further administration” value in series [1] (2.6 g/day for 1 month, increased from 10.7 g/dl) turned out to be 11.5 g/dL. The judgement of results in series [1] (cases 1 to 7) was “effective”; in series [1] (cases 8 and 9), “ineffective”. For the same compound, the “Hb after discontinuance of administration” value in series [1] (other 3 effective cases) is “Hb was not lowered”. Moreover, the renal function result in series [2] is reported as “recovery of the renal function was recognized”. Moreover, the figures for the side effect entry in series [3] (9 administration cases) and in series [3] (further administration of 2.6 g/day for 1 month) were “No evident side effect” and “no obvious side effect”, respectively. Further, the “EPO concentration in blood relative to rHuEPO preparation treatment” value in series [4] (L-arginine versus conventional rHuEPO treatment) was “less than ⅙”. Also, the “EPO concentration in blood, at the highest” value in series [4] (after the administration of L-arginine) is reported as “about 20 mU/mL”. Also, the “Epo productivity (Epo concentration in blood)” value is “increased” in series [4] (all the effective cases) and “lowered” in series [4] (the two ineffective cases).
As for “rHuEPO preparation: recombinant erythropoietin preparation, conventional treatment of renal anemia”, the “EPO concentration in blood” value in series [5] is given as “about 130 mU/mL”.
